Data published in PMC11696576, “Next generation thiazolyl ketone inhibitors of cytosolic phospholipase A2 α for targeted cancer therapy” (Nature Communications, 2025).
“And” between values parts separate entries of the source, which are not always exact repeats. Equal values may be shown once. Read-outs that look alike come from different tables or passages of the source.

System: panel of 66 cancer cell lines
Assay: cancer cell line screen, proliferation assay (ATPlite, 72 h)
Type: cell-based, human
Settings: for raw signal, dose-response (Figure S7a): rep1, rep2, listed as AVX420; for IC50: Homo sapiens
Source text: Targeting specific molecular vulnerabilities in cancer is considered a key approach to reducing the adverse effects of chemotherapy. However, the events that govern the susceptibility to suppression of the cPLA2α in cancer remain largely unexplored. We therefore took the approach of screening the antiproliferative activity of AVX420 in a panel of 66 cancer cell lines (hereafter referred to as the cancer cell line screen or CCLS) to allow us to investigate molecular and genetic vulnerabilities to the drug.
Screening of compound activities in 66 cancer cell lines was carried out at the Netherlands Translation Research Center. Briefly, proliferation assays were performed 72 h after compound addition using ATPlite 1step reagent (Perkin Elmer). IC50s calculated by non-linear regression analysis were used as a measure of compound activity for investigating associations with genetic factors. A complete description of the laboratory and data analysis methods are available in the Supplementary Information file (Supplemental Methods: Cancer Cell Line Screening).
Cancer cell line screening
Cell proliferation assays
All cell lines were from the American Type Culture Collection (ATCC) Manassas, Virginia (US) and maintained under ATCC-recommended protocols and within 9 pas- […]
DMSO at -80°C until one hour before use. Cells exposed within one hour after thaw-ing of the compound stocks. Final compound concentration range in the assay was 10 […]
cated by supplier. Compounds were dissolved in 100 % DMSO and stored at room temperature. Final concentration of the reference compounds in the assay was 3.16x10-5 M to 3.16x10-9 M. The final DMSO concentration during incubation was […]
Cell lines were plated in Advanced RPMI 1640 (Gibco, ref 12633-012) cell culture medium, containing 1% Glutamax solution (Gibco, ref 35050-038), 0.4% Pen Strep solution (Gibco, ref 15140-122) and bovine serum. The cPLA2α inhibitors were tested in 0.5% bovine serum (HyClone, ref SH30072.03) with the exception of769-P, A-204, BT-549, SR, T98G, which were tested in the presence of 1.0% serum and A-704 and LNCaP FGS, which were tested in the in the presence of 10% serum. Reference com-pounds were all tested in the presence of 10% bovine serum.
Cells were dispensed in a 384-well plate, at a concentration of 200 - 3200 cells per well, depending on the cell line, in 45 μL medium. Plated cells were incubated in a humidified atmosphere of 5% CO2 at 37 °C. After 24 hours, 5 μL of compound dilu-tion was added and plates were further incubated for another 72 hours. After 72 hours, 25 μL of ATPlite 1Step™ (PerkinElmer) solution was added to each well, and subse-quently shaken for 2 minutes. After 10 minutes of incubation in the dark, the lumines-cence was recorded on an Envision multimode reader (PerkinElmer).
Cell growth control. The cellular doubling times of all cell lines are calculated from the t = 0 hours and t = 72 hours growth signals of the untreated cells. If the doubling time is out of specification (0.5 – 2.0 times deviating from historic average) the assay […]
IC50s were calculated by non-linear regression using IDBS XLfit 5. The percentage growth after 72h (%-growth) was calculated as follows: 100% x (luminescence t = 72h / luminescence untreated,t=72h). This was fitted to the 10log compound concentration (conc) by a 4-parameter logistics curve: %-growth = bottom + (top – bottom) / (1+ 10(logIC50 – conc)*hill)), where hill is the Hill-coefficient, and bottom and top the asymptotic mini-mum and maximum cell growth that the compound allows in that assay.
All analysis were performed in the statistical software package R and visualized using GraphPad Prism version 10.0 .0

## CCCCCCCOc1ccc(OCC(=O)c2nc(C(=O)OC)cs2)cc1 [GK420]
10log of IC50 in nM, panel average
  average panel 10logIC50: 4.17
769P, kidney
  pIC50: 4,561
786O, kidney
  pIC50: 4,867
A172, central_nervous_system
  pIC50: 4,692
A204, soft_tissue
  pIC50: 4,646
A375, skin
  pIC50: 4,764
A388, cervix
  pIC50: 4,776
A427, lung
  pIC50: 4,923
A498, kidney
  pIC50: 4,615
A549, lung
  pIC50: 4,624
ACHN, kidney
  pIC50: 4,799
AN3CA, endometrium
  pIC50: 4,941
AU565, breast
  pIC50: 4,836
AsPC1, pancreas
  pIC50: 4,597
BT20, breast
  pIC50: 4,474
BT549, breast
  pIC50: 4,818
BxPC3, pancreas
  pIC50: 4,715
CAL27, upper_aerodigestive_tract
  pIC50: 4,804
CCRF-CEM, Log10 M -4
  raw signal, dose-response (Figure S7a): 5160 and 4973
CCRF-CEM, Log10 M -4.5
  raw signal, dose-response (Figure S7a): 1680 and 1133
CCRF-CEM, Log10 M -6
  raw signal, dose-response (Figure S7a): 1223867 and 1721613
CCRF-CEM, Log10 M -6.5
  raw signal, dose-response (Figure S7a): 5260280 and 5359267
CCRF-CEM, Log10 M -7
  raw signal, dose-response (Figure S7a): 5505373 and 6147053
CCRF-CEM, Log10 M -7.5
  raw signal, dose-response (Figure S7a): 5656213 and 5825533
CCRF-CEM, Log10 M -8
  raw signal, dose-response (Figure S7a): 5419560 and 5847920
COLO829, unknown
  pIC50: 4,761
Daoy, central_nervous_system
  pIC50: 4,867
DoTc24510, cervix
  pIC50: 4,743
HCT15, large_intestine
  pIC50: 4,945
HCT116, large_intestine
  pIC50: 4,795
769-P, read-out: IC50
  IC50: 27.5 µM
786-0, 786-O, read-out: IC50
  IC50: 13.6 µM
72 h, panel average, 72 h, read-out: average IC50 in the cancer cell line screen
  IC50: 18.4 µM
A 172, A-172, read-out: IC50
  IC50: 20.3 µM
A204, A-204, read-out: IC50
  IC50: 22.6 µM
A388, read-out: IC50
  IC50: 16.8 µM
A498, A-498, read-out: IC50
  IC50: 24.3 µM
A549, A-549, read-out: IC50
  IC50: 23.8 µM
A704, A704, kidney, read-out: pIC50 (converted)
  IC50: 34 µM
A704, A-704, read-out: IC50
  IC50: > 100 µM
A-375, A375, read-out: IC50
  IC50: 17.2 µM
A-427, A-427, read-out: IC50
  IC50: 11.9 µM
ACHN, read-out: IC50
  IC50: 15.9 µM
AN3-CA, AN3 CA, read-out: IC50
  IC50: 11.4 µM
ASPC1, AsPC-1, read-out: IC50
  IC50: 25.3 µM
AU565, AU-565, read-out: IC50
  IC50: 14.6 µM
BT-20, BT-20, read-out: IC50
  IC50: 33.6 µM
BT-549, BT-549, read-out: IC50
  IC50: 15.2 µM
BXPC-3, BxPC-3, read-out: IC50
  IC50: 19.3 µM
C-33-A, C33A, cervix, read-out: pIC50 (converted)
  IC50: 1.74 µM
C-33-A, C-33 A, read-out: IC50
  IC50: 1.74 µM
CAL-27, CAL 27, read-out: IC50
  IC50: 15.7 µM
CCRF-CEM, CCRFCEM, blood, read-out: pIC50 (converted)
  IC50: 0.708 µM
CCRF-CEM, read-out: IC50
  IC50: 0.708 µM
COLO 205, COLO 205, read-out: IC50
  IC50: 22.3 µM
COLO-829, COLO 829, read-out: IC50
  IC50: 17.3 µM
DLD-1, DLD1, large_intestine, read-out: pIC50 (converted)
  IC50: 13.8 µM
DLD-1, DLD-1, read-out: IC50
  IC50: 13.8 µM
DU-145, DU 145, read-out: IC50
  IC50: 25.3 µM
Daoy, read-out: IC50
  IC50: 13.6 µM
DoTc2-4510, DoTc2 4510, read-out: IC50
  IC50: 18.1 µM
FaDu, upper_aerodigestive_tract, read-out: pIC50 (converted)
  IC50: 25.7 µM
FaDu, read-out: IC50
  IC50: 25.7 µM
HCT-15, HCT-15, read-out: IC50
  IC50: 11.4 µM
HCT-116, HCT 116, read-out: IC50
  IC50: 16 µM
Hs-578T, Hs 578T, read-out: IC50
  IC50: 14.7 µM
J82, J82, read-out: IC50
  IC50: 19.2 µM
Jurkat E6.1, Jurkat E6.1, read-out: IC50
  IC50: 0.569 µM
K562, K-562, read-out: IC50
  IC50: 15.3 µM
KU812, KU812, read-out: IC50
  IC50: 9.13 µM
LNCaP, LNCaP FGC, read-out: IC50
  IC50: 91.7 µM
LS174T, LS 174T, read-out: IC50
  IC50: 20.3 µM
LoVo, read-out: IC50
  IC50: 16.6 µM
MCF7, MCF7, read-out: IC50
  IC50: 14.7 µM
MG-63, MG-63, read-out: IC50
  IC50: 22.7 µM
MIA PaCa-2, MIA PaCa-2, read-out: IC50
  IC50: 13.1 µM
MOLT-4, MOLT-4, read-out: IC50
  IC50: 4.07 µM
MeWo, read-out: IC50
  IC50: 19.5 µM
NCI-H82, NCI-H82, read-out: IC50
  IC50: 4.84 µM
NCI-H460, NCI-H460, read-out: IC50
  IC50: 32.5 µM
OVCAR-3, OVCAR-3, read-out: IC50
  IC50: 13.7 µM
PA1, ovary, read-out: pIC50 (converted)
  IC50: 2.88 µM
PA-1, PA-1, read-out: IC50
  IC50: 2.88 µM
RKO, read-out: IC50
  IC50: 10.1 µM
RPMI-7951, RPMI-7951, read-out: IC50
  IC50: 14.1 µM
RT-4, RT4, read-out: IC50
  IC50: 33.4 µM
SHP77, SHP-77, read-out: IC50
  IC50: 13.8 µM
